Format in all cases: in vivo
Assay [1] relates to fall armyworm larvae (Spodoptera frugiperda). The assay can be described thus: Spodoptera frugiperda spray test. As to conditions: in Zea mays, 168 h. The method, then:
Spodoptera frugiperda—Spray Test
(§1) • Solvent: 78.0 parts by weight acetone • 1.5 parts by weight dimethylformamide • Emulsifier: alkylarylpolyglycol ether
(§2) To produce a suitable preparation of active compound, 1 part by weight of active compound is mixed with the stated amount of solvents and is diluted with water, containing an emulsifier concentration of 1000 ppm, to the desired concentration. Further test concentrations are prepared by dilution with emulsifier containing water.
Maize (Zea mays) leaf sections are sprayed with a preparation of the active ingredient of the desired concentration. Once dry, the leaf sections are infested with fall armyworm larvae (Spodoptera frugiperda). After 7 days mortality in % is determined. 100% means all caterpillars have been killed and 0% means none of the caterpillars have been killed.

The test system of assay [2] is larvae of the banded cucumber beetle (Diabrotica balteata). The assay can be described thus: Diabrotica balteata spray test. As to conditions: 168 h, after 7 days, wheat seeds, read-out: efficacy (seedling growth); for pest or weed control at 32 µg/disc, 100 g/ha: 100 g/ha (=32 μg/well). The method, then:
Diabrotica balteata—Spray Test
(§3) • Solvent: 78.0 parts by weight of acetone • 1.5 parts by weight of dimethylformamide • Emulsifier: alkylarylpolyglycol ether
(§4) To produce a suitable preparation of active compound, 1 part by weight of active compound is mixed with the stated amount of solvent, and the concentrate is diluted with water, containing an emulsifier concentration of 1000 ppm, to the desired concentration. Further test concentrations are prepared by dilution with emulsifier containing water.
Soaked wheat seeds (Triticum aestivum) are placed in a multiple well plate filled with agar and some water and are incubated for 1 day to germinate (5 seeds per well). The germinated wheat seeds are sprayed with a test solution containing the desired concentration of the active ingredient. Afterwards each unit is infected with 10-20 larvae of the banded cucumber beetle (Diabrotica balteata).
After 7 days efficacy in % is determined. 100% means all the seedlings have grown up like in the untreated, uninfected control; 0% means none of the seedlings have grown.

Assay [3] concerns adult cat fleas (Ctenocephalides felis). In words: Ctenocephalides felis in-vitro contact test, adult cat flea. As to conditions: 5 μg/cm^2 (=500 g/ha), after 48 hours, read-out: efficacy (fleas dead or moribund). The method, then:
Ctenocephalides felis—In-Vitro Contact Tests Adult Cat Flea
(§5) 9 mg compound is solved in 1 mL acetone and diluted with acetone to the desired concentration. 250 μL of the test solution is filled in 25 mL glass test tubes and homogeneously distributed on the inner walls by rotation and tilting on a shaking device (2 h at 30 rpm). With a compound concentration of 900 ppm, an inner surface of 44.7 cm^2 and a homogeneous distribution, a dose of 5 μg/cm^2 is achieved.
After the solvent has evaporated, each test tube is filled with 5-10 adult cat fleas (Ctenocephalides felis), closed with a perforated lid and incubated in a lying position at room temperature and relative humidity. After 48 hours efficacy is determined. The fleas are patted on the ground of the tubes and are incubated on a heating plate at 45-50° C. for at most 5 minutes Immotile or uncoordinated moving fleas, which are not able to escape the heat by climbing upwards, are marked as dead or moribund.
An efficacy of 100% means all fleas are dead or moribund; 0% means no fleas are dead or moribund.

In assay [4] the test system is Rhipicephalus (Boophilus) microplus larvae (strain Parkhurst, resistant against synthetic pyrethroids). The assay can be described thus: Rhipicephalus (Boophilus) microplus in-vitro contact test, larval cattle tick. As to conditions: 5 μg/cm^2 (=500 g/ha), after 48 hours, read-out: efficacy (larvae dead or moribund). The procedure:
Rhipicephalus (Boophilus) microplus—In-Vitro Contact Tests Larval Cattle Tick (Strain Parkhurst, Resistant Against Synthetic Pyrethroids)
as §5
After the solvent has evaporated, each test tube is filled with 20-50 cattle tick larvae (Rhipicephalus microplus), closed with a perforated lid and incubated in a horizontal position at 85% relative humidity and 27° C. in an incubator. After 48 hours efficacy is determined. The larvae are patted on the ground of the tubes and negative geotactic behavior is recorded.
An efficacy of 100% means all larvae are dead or moribund; 0% means no larvae are dead or moribund.

For assay [5], the system named is adult engorged female ticks (Rhipicephalus microplus). The assay can be described thus: Rhipicephalus (Boophilus) microplus injection test. As to conditions: 168 h, egg deposition monitored after 7 days, read-out: efficacy (infertile eggs); for pest or weed control at 20 µg/tick: 20 μg/tick injected; for pest or weed control at 4 µg/tick: 4 μg/tick injected. The procedure: Rhipicephalus (Boophilus) microplus—Iniectiontest
(§6) • Solvent: dimethyl sulfoxide
To produce a suitable preparation of active compound, 10 mg of active compound are dissolved in 0.5 mL solvent, and the concentrate is diluted with solvent to the desired concentration.
Five adult engorged female ticks (Rhipicephalus microplus) are injected with 1 μL compound solution into the abdomen. The ticks are transferred into replica plates and incubated in a climate chamber.
After 7 days egg deposition of fertile eggs is monitored. Eggs where fertility is not visible are stored in a climate chamber till hatching after about 42 days. An efficacy of 100% means all eggs are infertile; 0% means all eggs are fertile.

Assay [6] deals with adult unfed cat fleas (Ctenocephalides felis). The assay can be described thus: Ctenocephalides felis oral test. As to conditions: 48 h, 100 ppm in cattle blood, after 2 days. The method, then:
Ctenocephalides felis—Oral Test
as §6
To produce a suitable preparation of active compound, 10 mg of active compound are dissolved in 0.5 mL solvent, and the concentrate is diluted with cattle blood to the desired concentration.
Approximately 20 adult unfed cat fleas (Ctenocephalides felts) are placed in flea chambers. The blood chamber, sealed with parafilm on the bottom, are filled with cattle blood supplied with compound solution and placed on the gauze covered top of the flea chamber, so that the fleas are able to suck the blood. The blood chamber is heated to 37° C. whereas the flea chamber is kept at room temperature.
After 2 days mortality in % is determined. 100% means all the fleas have been killed; 0% means none of the fleas have been killed.

Assay [7] has as its system green peach aphid (Myzus persicae). The assay can be described thus: Myzus persicae spray test. As to conditions: foliar, 120 h, after 5 days, Chinese cabbage leaf disks. The procedure: Myzus persicae—Spray Test
as §1, §2
Chinese cabbage (Brassica pekinensis) leaf disks infected with all instars of the green peach aphid (Myzus persicae), are sprayed with a preparation of the active ingredient of the desired concentration.
After 5 days mortality in % is determined. 100% means all aphids have been killed and 0% means none of the aphids have been killed.

Assay [8] has as its system larvae of the southern green stink bug (Nezara viridula). The assay can be described thus: Nezara viridula spray test. As to conditions: 96 h, after 4 days, barley plants. The method, then:
Nezara viridula—Spray Test
as §3, §4
Barley plants (Hordeum vulgare) are sprayed with a test solution containing the desired concentration of the active ingredient and are infested with larvae of the southern green stink bug (Nezara viridula).
After 4 days mortality in % is determined. 100% means all the stink bugs have been killed; 0% means none of the stink bugs have been killed.

Assay [9] deals with adult mosquitoes Culex quinquefasciatus strain P00. In words: Culex quinquefasciatus test (CULXFA surface treatment & contact assay). As to conditions: 24 hours after contact, read-out: efficacy (mortality). The method, then: Culex quinquefasciatus Test (CULXFA Surface Treatment & Contact Assay)
(§7) • Solvent: Aceton+2000 ppm rapeseed oil methyl ester (RME)
In order to produce a sufficient, active ingredient containing solution it is necessary to solve the test compound in the solvent-mix (acetone at 2 mg/ml/RME 2 000 ppm). This solution is pipetted onto a glazed tile and after evaporation of the acetone, adult mosquitoes of the species Culex Quinquefasciatus strain P00 are placed onto the dried surface. The exposure time is 30 minutes. Mortality in percent (%) is determined 24 hours after contact of the insects to the treated surface. 100% mortality means that all tested insects are dead, whereas 0% means that no insect died.

For assay [10], the system named is adult mosquitoes Aedes aegypti strain MONHEIM. In words: Aedes aegypti test (AEDSAE surface treatment & contact assay). As to conditions: 24 hours after contact, read-out: efficacy (mortality). The procedure: Aedes aegypti Test (AEDSAE Surface Treatment & Contact Assay)
as §7
In order to produce a sufficient, active ingredient containing solution it is necessary to solve the test compound in the solvent-mix (acetone at 2 mg/ml/RME 2000 ppm). This solution is pipetted onto a glazed tile and after evaporation of the acetone, adult mosquitoes of the species Aedes aegypti strain MONHEIM are placed onto the dried surface. The exposure time is 30 minutes.
(§8) Mortality in percent (%) is determined 24 hours after contact of the insects to the treated surface. 100% mortality means that all tested insects are dead, whereas 0% means that no insect died.

The subject of assay [11] is adult flies Musca domestica strain WHO-N. The assay can be described thus: Musca domestica test (MUSCDO surface treatment & contact assay). As to conditions: 24 hours after contact, read-out: efficacy (mortality). The method, then: Musca domestica Test (MUSCDO Surface Treatment & Contact Assay)
as §7
In order to produce a sufficient, active ingredient containing solution it is necessary to solve the test compound in the solvent-mix (acetone at 2 mg/ml/RME 2000 ppm). This solution is pipetted onto a glazed tile and after evaporation of the acetone, adult flies of the species Musca domestica strain WHO-N are placed onto the dried surface. The exposure time is 30 minutes.
as §8

Setting [12] is: surface concentration 4 mg/m^2, 30 minutes exposure.
[13] abbreviates: surface concentration 20 mg/m^2, 30 minutes exposure.

One may read the mortality as the percentage killed.

`C[C@H](NC(=O)c1cc(Br)cc(OC(C)(C)C#N)c1)c1ncnn1-c1ncc(C#N)s1` [Example I-60] had a mortality at 100 g/ha in [1] of 100%. Further, the pest or weed control at 32 µg/disc, 100 g/ha in [2] is 100%. The pest or weed control at 5 µg/cm2, 5 µg/cm2 in [3] worked out at 80%; in [4], 100%.
On to `Cc1cc(OC2CCC2)cc(C(=O)N[C@@H](C)c2ncnn2-c2ccc(C#N)cn2)c1` [Example I-5, N-{(1S)-1-[1-(5-Cyanopyridin-2-yl)-1H-1,2,4-triazol-5-yl]ethyl}-3-(cyclobutyloxy)-5-methylbenzamide], for which, in assay [5], the pest or weed control at 20 µg/tick was found to be 100%. The compound further returned a mortality at 100 ppm in [6] of 100%. For the same compound, the pest or weed control at 160 µg/disc, 500 g/ha in assay [2] (500 g/ha (=160 μg/well)) amounted to 100%.
As to `C[C@H](NC(=O)c1cc(Br)cc(C=C(Cl)Cl)c1)c1ncnn1-c1ccc(C#N)cn1` [Example I-23], in [5], the pest or weed control at 4 µg/tick was 100%. The mortality at 100 ppm in assay [6] came to 100%.
Turning to `Cc1cc(OCC2CC2)cc(C(=O)N[C@@H](C)c2ncnn2-c2ccc(C#N)cn2)c1` [Example I-3, N-{(1S)-1-[1-(5-Cyanopyridin-2-yl)-1H-1,2,4-triazol-5-yl]ethyl}-3-(cyclopropylmethoxy)-5-methylbenzamide], in assay [5], the pest or weed control at 4 µg/tick was determined as 100% and the pest or weed control at 20 µg/tick came to 100%. In [6], this compound yielded a mortality at 100 ppm of 100%. In assay [1], this compound returned a mortality at 500 g/ha of 100%.
`Cc1nc([C@H](C)NC(=O)c2cc(OCC3CCOCC3)cc(C(F)(F)F)c2)n(-c2ccc(C#N)cn2)n1` [Example I-19, N-{(1S)-1-[1-(5-Cyanopyridin-2-yl)-3-methyl-1H-1,2,4-triazol-5-yl]ethyl}-3-(tetrahydro-2H-pyran-4-ylmethoxy)-5-(trifluoromethyl)benzamide]: the pest or weed control at 4 µg/tick in assay [5] turned out to be 100%. Further, in [6], the mortality at 100 ppm amounted to 80%. The pest or weed control at 5 µg/cm2, 5 µg/cm2 in assay [4] stood at 100%.
With `CC(C#N)c1cccc(C(=O)N[C@@H](C)c2ncnn2-c2ccc(C#N)cn2)c1` (stereo partly shown) [Example I-1], the pest or weed control at 20 µg/tick in assay [5] amounted to 100%. In addition, the mortality at 100 ppm in assay [6] is 100%. In assay [4], the pest or weed control at 5 µg/cm2, 5 µg/cm2 is 90%.
On to `C[C@H](NC(=O)c1cc(Cl)cc(Cn2cc(C(F)(F)F)cn2)c1)c1ncnn1-c1ccc(C#N)cn1` [Example I-10], for which, in assay [5], the pest or weed control at 4 µg/tick is 100% and the pest or weed control at 20 µg/tick was 100%. In [6], this compound showed a mortality at 100 ppm of 100%.
As for `C[C@H](NC(=O)c1cccc(CC#N)c1)c1ncnn1-c1ccc(C#N)cn1` [Example I-2], in [5], the pest or weed control at 4 µg/tick came to 100% and the pest or weed control at 20 µg/tick was determined as 100%. Moreover, the mortality at 100 ppm in assay [6] came out at 100%. For the same compound, in assay [4], the pest or weed control at 5 µg/cm2, 5 µg/cm2 was found to be 80%.
Consider `C[C@H](NC(=O)c1cc(OC(F)(F)F)cc(C(C)(C)C#N)c1)c1ncnn1-c1ccc(C#N)cn1` [Example I-45], for which the mortality at 100 g/ha in assay [7] is 90%; in assay [8] (100 g/ha) it was 100%. For the same compound, the mortality at 500 g/ha in [8] (500 g/ha) stood at 100%. The mortality at 4 mg/m2 in assay [9] (setting [12]), in assay [10] (setting [12]) and in assay [11] (setting [12]) was 80 to 100% in each case. Moreover, the mortality at 20 mg/m2 in assay [9] (setting [13]), in [10] (setting [13]) and in assay [11] (setting [13]) was 80 to 100% throughout. Moreover, in assay [2], the pest or weed control at 32 µg/disc, 100 g/ha amounted to 100%. In addition, in assay [4], the pest or weed control at 5 µg/cm2, 5 µg/cm2 came out at 100%.
As to `C[C@H](NC(=O)c1cc(Cl)cc(Oc2ccc(Cl)cc2)c1)c1ncnn1-c1ccc(C#N)cn1` [Example I-8], in assay [5], the pest or weed control at 4 µg/tick came to 80% and the pest or weed control at 20 µg/tick amounted to 100%. In addition, the mortality at 100 ppm in assay [6] is 90%.

Values taken from US12653190B2, “Heteroaryl-triazole compounds as pesticides” (Bayer Aktiengesellschaft, priority 2020, dated 2026).
